Patent publication US20070207144A1, “Ubiquitin/proteasome inhibitors for the treatment of spinal muscular atrophy” (priority 2006, published 2007)

What was measured:
[1] = test system: fibroblasts isolated from an SMA patient; assay: SMN protein and gem formation in SMA patient fibroblasts; type: cell-based, human; settings: compared with the control DMSO
Text: The invention is further related to the appreciation that the assays described herein can be efficiently used as the primary assay for selecting a candidate for the treatment of SMA. Thus, the invention relates to a method for selecting a candidate for the treatment of SM-A comprising (a) contacting the candidate with a fibroblast cell culture derived from an SMA patient under conditions and for a period of time sufficient for SMN protein expression and gem formation; (b) determining the formation of gems of SMN protein; and (c) selecting the candidate. The formation of gems can be determined by establishing the percentage of fibroblasts with gems in the cell culture. In other embodiments, the number of gems or concentration of gems in the culture can be determined.
Cell lines are derived from SMA patients. Such cells are termed “SMA cells” herein. The cells are isolated from a variety of sources and tissues. For example, the cells can be isolated from a blood sample or from a biopsy. The cell can be a stem cell, a fibroblast, a neuronal cell or a lymphoid cell. The cells can be propagated in culture according to cell type and origin of the cells. The requisite growth factors can be provided in the media. For example, the media can be supplemented with fetal calf serum, a cocktail of purified factors, or an individual growth factor. The cells can be propagated without being immortalized. Alternatively, the cells can immortalized using a virus or a plasmid bearing an oncogene, or a transforming viral protein, e.g., papilloma E6 or E7 protein. The source of the fibroblasts for cell culture can be isolated from a patient with SMA or derived from such an isolation. In one embodiment, the cells are a clonal cell culture derived from an SMA patient.
Procedures for isolating and maintaining cells lines are well known in the art and can be found in suitable laboratory manuals. The cells can be grown in sufficient amount to screen an array of test compounds. Alternatively, cells can be used to assess the effectiveness of individual compounds as SMA treatments. […]

[2] = test system: proteasome; settings: Fenteany et al., Science 1995; cited from earlier work
[3] = test system: several cell types; settings: Fenteany et al., PNAS 1994; cited from earlier work

SMILES | SMN & Gems in patient fibroblasts (pictures) [1] | proteolytic activity of the proteasome complex [2] | proliferation of several cell types [3]
CC(C)[C@H](O)[C@@]12NC(=O)[C@H](CCCl)[C@]1(C)OC2=O [Antiprotealide, antiprotealide] | induced | – | –
CC(C)C[C@H](NC(=O)[C@H](Cc1ccccc1)NC(=O)c1cnccn1)B(O)O [Velcade, bortezomib] | induced | – | –
CC(=O)N[C@@H](CSC(=O)[C@]1([C@@H](O)C(C)C)NC(=O)[C@H](C)[C@@H]1O)C(=O)O [Lactacystin, lactacystin] | induced | specifically inhibits | capable of inhibiting
